Test results published in patent US20010023254A1, “Use of sulfamate derivatives for treating impulse control disorders” (priority 2000, published 2001).
Entries after “also recorded” stand apart in the source; their conditions may differ.

Legend:
[1] = tested on: Patients with Binge Eating Disorder (BED); assay: Patients with Binge Eating Disorder (BED) treated clinically with open-label topiramate; assay type: in vivo, human
Procedure: (§1) In the examples, patients were treated with open-label topiramate starting at 25 mg/qHS and the dosage increased by the patient in 25 mg increments as tolerated by the subjects until a response is seen up to a maximum of 1200 mg. [table]

[2] = tested on: patients who coincidentally had binge eating disorder; assay: Clinical studies of topiramate in mood disorders; patients who coincidentally had binge eating disorder; assay type: in vivo, human; conditions: several mood disorder patients with coincident binge eating disorder
Source text: The activity of the compounds of formula I in treating ICD's was first evidenced in clinical studies conducted to evaluate the efficacy of topiramate in treating mood disorders.

[3] = tested on: Patients with Overeating, Overweight, and Obesity; assay: Patients with overeating, overweight and obesity treated clinically with topiramate; assay type: in vivo, human
Procedure: as §1

[4] = tested on: patients with epilepsy; conditions: cited from earlier work
[5] = tested on: Persons with bulimia nervosa; conditions: cited from earlier work
[6] = Pt 5, first trial, max dose 100 mg/day
[7] = Pt 5, second trial, max dose 100 mg/day
[8] = Pt 5, first trial, max dose 250 mg/day
[9] = Pt 5, second trial, max dose 200 mg/day

CC1(C)O[C@@H]2[C@@H](CO[C@@]3(COS(N)(=O)=O)OC(C)(C)O[C@@H]23)O1 [Topiramate, 2,3;4,5-bis-O-(1-methylethylidene)-beta -D-fructopyranose sulfamate]
Loss of weight ([1]; Pt 1, max dose 1200 mg/day): Loss of 107 lbs. | Response of BD (Bipolar Disorder) ([1]; Pt 1, max dose 1200 mg/day): Remission of BD | Response of BED (Binge Eating Disorder) ([1]; Pt 1, max dose 1200 mg/day): Remission of BED | Discontinuation and its reason (adverse effects) ([1]; Pt 2, max dose 150 mg/day): Discontinued due to sedation,; also recorded: cognitive dulling | Loss of weight ([1]; Pt 2, max dose 150 mg/day): Loss of 5 lbs. | Response of BD (Bipolar Disorder) ([1]; Pt 2, max dose 150 mg/day): Mild improvement of BD, | Response of BED (Binge Eating Disorder) ([1]; Pt 2, max dose 150 mg/day): Moderate decrease of BED, | Loss of weight ([1]; Pt 3, max dose 1200 mg/day): Loss of 50.5 lbs | Response of BD (Bipolar Disorder) ([1]; Pt 3, max dose 1200 mg/day): Moderate improvement of BD. | Response of BED (Binge Eating Disorder) ([1]; Pt 3, max dose 1200 mg/day): Remission of BED | Loss of weight ([1]; Pt 4, max dose 900 mg/day): Loss of 30.5 lbs. | Response of BD (Bipolar Disorder) ([1]; Pt 4, max dose 900 mg/day): Moderate improvement of BD, | Response of BED (Binge Eating Disorder) ([1]; Pt 4, max dose 900 mg/day): Marked improvement of BED, | Discontinuation and its reason (adverse effects) [1, 6]: discontinued due to GI distress | Response of BED (Binge Eating Disorder) [1, 6]: First trial: No response of BED, | Loss of weight [1, 7]: Loss of 11 lbs. | Response of BED (Binge Eating Disorder) [1, 7]: Remission of BED | Response of Compulsive Buying [1, 7]: Remission of Compulsive | Response of BD (Bipolar Disorder) ([1]; Pt 5, second trial, max dose 100 mg/day, BD in remission at start): Second Trial: Worsening of BD | Response of BED (Binge Eating Disorder) ([1]; Pt 6, max dose 100 mg/day): No response of BED | Weight change ([1]; Pt 6, max dose 100 mg/day): No weight change | Binging, as reported by patients [2]: marked reduction in their binging | Weight, as reported by patients [2]: concurrent loss in weight | Loss of weight ([3]; Pt 1, max dose 700 mg/day): 9 lbs | Response of BD (Bipolar Disorder) ([3]; Pt 1, max dose 700 mg/day): No response of BD | Loss of weight ([3]; Pt 2, max dose 300 mg/day): 16 lbs | Response of BD (Bipolar Disorder) ([3]; Pt 2, max dose 300 mg/day): Remission of BD | Response of overeating ([3]; Pt 2, max dose 300 mg/day): Remission of overeating | Loss of weight ([3]; Pt 3 ADJ, max dose 400 mg/day): 7 lbs | Response of BD (Bipolar Disorder) ([3]; Pt 3 ADJ, max dose 400 mg/day): Moderate improvement of BD | Response of overeating ([3]; Pt 3 ADJ, max dose 400 mg/day): Moderate improvement of overeating | Loss of weight ([3]; Pt 4, max dose 350 mg/day): 5 lbs | Response of BD (Bipolar Disorder) ([3]; Pt 4, max dose 350 mg/day): No response of BD | Response of overeating ([3]; Pt 4, max dose 350 mg/day): Mild improvement in overeating | Loss of weight [3, 8]: 7 lbs | Response of BD (Bipolar Disorder) [3, 8]: First Trial: Worsening of BD | Response of overeating [3, 8]: Mild decrease of overeating | Body weight, before-after [3, 9]: 154-155 lbs | Gain of weight [3, 9]: 1 lb | Response of overeating [3, 9]: Mild decrease of overeating | Loss of weight ([3]; Pt 6, max dose 800 mg/day): 9 lbs | Response of BD (Bipolar Disorder) ([3]; Pt 6, max dose 800 mg/day, BD in remission at start): Worsening of BD | Discontinuation and its reason (adverse effects) ([3]; Pt 7 NLR, max dose 300 mg/day): Discontinued due to anorexia | Loss of weight ([3]; Pt 7 NLR, max dose 300 mg/day): 46 lbs | Response of BD (Bipolar Disorder) ([3]; Pt 7 NLR, max dose 300 mg/day): Worsening of BD | Loss of weight ([3]; Pt 8 PR, max dose 700 mg/day): 19 lbs | Reason for discontinuation (adverse effects) ([3]; Pt 8 PR, max dose 700 mg/day): G.I. Distress | Response of BD (Bipolar Disorder) ([3]; Pt 8 PR, max dose 700 mg/day): Moderate improvement of BD | Response of overeating ([3]; Pt 8 PR, max dose 700 mg/day): Marked improvement in overeating | Efficacy in simple and complex partial seizures and secondarily generalized seizures ([4]; clinical trials of human epilepsy, adjunctive therapy or monotherapy): effective | Effect on appetite ([4]; controlled trials in patients with epilepsy): suppression of appetite | Effect on weight ([4]; controlled trials in patients with epilepsy, unrelated to binge eating): weight loss

O=C1NC(=O)C(c2ccccc2)(c2ccccc2)N1 [phenytoin]
Binge eating [5]: reduced binge eating
